From US5110927A (The United States of America as represented by the …, priority 1987, dated 1992)
“Also recorded” adds a separate entry of the source.

Columns and labels:
[1] = molecular target: α1-adrenoceptor (3H-prazosin binding sites); assay: displacement of 3H-prazosin from rat cerebral cortical (brain) membranes; conditions: for -logIC50: 3H-prazosin displacement, rat cerebral cortical membranes; for affinity to alpha1-adrenoceptors (in words): discussion of Table 1
Protocol: IC50 values and apparent Ki values were determined as in Table 1.
Rat brain cortices were homogenized in approximately 30 volumes/wet weight of 50 mM Tris buffer, pH 7.4, containing 10 mM MgCl2 by use of a Polytron (setting 6 for 10 seconds). It should be noted that this buffer was used throughout the experimental procedures. The homogenate was centrifuged at 48,000×g for 10 minutes in a Sorvall RC-5B centrifuge. The resulting pellet was resuspended in buffer by use of a Polytron and recentrifuged. This process was repeated and the pellet was resuspended in approximately 200 volumes for affinity studies or 20 volumes for irreversibility experiments.
Specific binding was defined as the difference between total binding (measured in the absence of any ligand) and non-specific binding (measured in the presence of 10 microM phentolamine). Duplicate tubes were used for each condition. Reaction tubes were incubated for 30 minutes at 30° C., then diluted to 5 ml with ice cold buffer, and filtered under reduced pressure through Whatman GF/C glass fiber filters. The reaction tubes and filters were washed three additional times with buffer.

[2] = test system: α1-adrenoceptor (3H-prazosin binding sites); assay: irreversibility experiment: membranes preincubated with compound, washed, assayed for saturation of 3H-prazosin binding; design: species or system rat; conditions: for irreversible blockade / effect on 3H-prazosin binding sites (in words): membranes, preincubation and washing
[3] = test system: spontaneously hypertensive rats; conditions: conscious; previously shown; cited from earlier work
[4] = test system: alpha1-adrenoceptors and other receptors; conditions: prior art, cited from earlier work

Row | SMILES | -logIC50 [1] | affinity to alpha1-adrenoceptors (in words) [1] | further results
1 | COc1cc2nc(N3CCN(C(=O)[C@@H]4C[C@H]4c4ccccc4)CC3)nc(N)c2cc1OC (relative stereo) [Compound 25] | 9.29 | affinity similar to that of the cinnamoyl compound No. 9 | –
2 | COc1cc2nc(N3CCN(C(=O)[C@@H]4O[C@H]4c4ccccc4)CC3)nc(N)c2cc1OC (relative stereo) [Compound 26] | 7.45 | two orders of magnitude lower than that of cyclopropane | –
3 | C/C=C/C=C/C(=O)N1CCN(c2nc(N)c3cc(OC)c(OC)cc3n2)CC1 [Compound 6] | 8.81 | high affinity | irreversible blockade / effect on 3H-prazosin binding sites (in words) [2]: did not irreversibly block alpha1 -adrenoceptors; also recorded: do not attach irreversibly to the receptor
4 | COc1cc2nc(N3CCN(C(=O)C=Cc4ccc(Cl)cc4)CC3)nc(N)c2cc1OC [Compound 11] | 7.90 | – | –
5 | COc1cc2nc(N3CCN(C(=O)C=Cc4ccc(Br)cc4)CC3)nc(N)c2cc1OC [Compound 12] | 7.10 | – | –
6 | COc1cc2nc(N3CCN(C(=O)C=Cc4c(F)c(F)c(F)c(F)c4F)CC3)nc(N)c2cc1OC [Compound 14] | 6.94 | – | –
7 | COc1cc2nc(N3CCN(C(=O)/C=C/c4ccc(N=[N+]=[N-])cc4)CC3)nc(N)c2cc1OC [Compound 16] | 9.49 | single exception; also recorded: improved the affinity | –
8 | COc1cc2nc(N3CCN(C(=O)C=Cc4ccc(N=C=S)cc4)CC3)nc(N)c2cc1OC [Compound 17] | 6.99 | – | –
9 | COc1cc2nc(N3CCN(C(=O)/C=C/c4ccc(NC(=O)CBr)cc4)CC3)nc(N)c2cc1OC [Compound 18] | 6.97 | – | –
10 | COC(=O)/C=C/C(=O)Nc1ccc(/C=C/C(=O)N2CCN(c3nc(N)c4cc(OC)c(OC)cc4n3)CC2)cc1 [Compound 19] | 7.79 | – | –
11 | COc1cc2nc(N3CCN(C(=O)C(F)=Cc4ccccc4)CC3)nc(N)c2cc1OC [Compound 20] | 7.89 | – | –
12 | COc1cc2nc(N3CCN(C(=O)/C=C/C(=O)c4ccccc4)CC3)nc(N)c2cc1OC [Compound 23] | 7.06 | reduced affinity considerably | –
13 | COc1cc2nc(N3CCN(C(=O)C#Cc4ccccc4)CC3)nc(N)c2cc1OC [Compound 28] | 7.92 | – | –
14 | COc1cc2nc(N3CCN(C(=S)Nc4ccccc4)CC3)nc(N)c2cc1OC [Compound 29] | – | much higher affinity for alpha1 -adrenoceptors than prazosin | –
15 | COc1cc2nc(N3CCN(C(=S)Nc4ccc(N=[N+]=[N-])cc4)CC3)nc(N)c2cc1OC [Compound 33] | 7.70 | decrease | –
16 | COc1cc2nc(N3CCN(C(=S)Nc4ccc(N=C=S)cc4)CC3)nc(N)c2cc1OC [Compound 34] | 7.18 | – | –
17 | COc1cc2nc(N3CCN(C(=S)Nc4cccc(N=C=S)c4)CC3)nc(N)c2cc1OC [Compound 35] | 7.30 | – | –
18 | COc1cc2nc(N3CCN(C(=S)Nc4cccc5ccccc45)CC3)nc(N)c2cc1OC [Compound 38] | 7.41 | – | –
19 | COc1cc2nc(N3CCN(C(=O)Nc4ccccc4)CC3)nc(N)c2cc1OC [Compound 39] | 7.56 | considerably decreased the affinity | –
20 | COc1cc2nc(N3CCN(C(=O)c4cccc(CCl)c4)CC3)nc(N)c2cc1OC [Compound 40] | 7.93 | – | –
21 | COc1cc2nc(N3CCN(C(=O)c4ccc(N=C=S)c(I)c4)CC3)nc(N)c2cc1OC [Compound 41] | 7.29 | much lower affinity | –
22 | COC(=O)/C=C/C(=O)Nc1ccc(CCCCC(=O)N2CCN(c3nc(N)c4cc(OC)c(OC)cc4n3)CC2)cc1 [Compound 42] | 8.07 | – | –
23 | COc1cc2nc(N3CCN(C(=O)C4CC5C=CC4C5)CC3)nc(N)c2cc1OC (stereo not shown) [Compound 46] | 8.61 | high affinity | –
24 | CCOC(=O)N1c2ccccc2C=CC1OCC (stereo not shown) [N-ethoxycarbonyl-2-ethoxy-1,2-dihydroquinoline] | – | – | concentration required relative to more specific chemoreactive labels ([4]; factor higher): about 10^4; receptor specificity (in words) [4]: receptor specificity of N-ethoxycarbonyl-2-ethoxy-1,2-dihydroquinoline is also low
25 | CC(COc1ccccc1)N(CCCl)Cc1ccccc1 (stereo not shown) [phenoxybenzamine, reference compound] | – | – | Kd (KD) of remaining 3H-prazosin binding sites (in words) ([2]; after preincubation and washing): without significant Kd changes in the remaining sites; blockade of 3H-prazosin binding sites by phenoxybenzamine ([2]; brain membranes, FIG. 4): approximately 85%; irreversible blockade / effect on 3H-prazosin binding sites (in words) [2]: block almost all ^3 -prazosin binding sites in brain membranes; receptor specificity (in words) [4]: not very specific
26 | c1c[nH]c(CNCCCCCCNCCSSCCNCCCCCCNCc2ccc[nH]2)c1 [pyrextramine] | – | – | receptor specificity (in words) [4]: block peripheral alpha2 -adrenergic responses as well

The next lines start with results.

Row | -logIC50 [1] | affinity to alpha1-adrenoceptors (in words) [1] | SMILES | further results
27 | 7.97 | low affinity | COc1cc2nc(N3CCN(C(=O)n4ccnc4)CC3)nc(N)c2cc1OC [Compound 2] | –
28 | 5.27 | low affinity | COc1cc2nc(N3CCN(C(=O)CBr)CC3)nc(N)c2cc1OC [Compound 3] | –
29 | 9.15 | – | COC(=O)/C=C/C(=O)N1CCN(c2nc(N)c3cc(OC)c(OC)cc3n2)CC1 [Compound 4] | –
30 | 8.01 | – | COC(=O)/C=C/C=C/C(=O)N1CCN(c2nc(N)c3cc(OC)c(OC)cc3n2)CC1 [Compound 5] | –
31 | 8.47 | affinity is considerably decreased | COc1cc2nc(N3CCN(C(=O)CCc4ccccc4)CC3)nc(N)c2cc1OC [Compound 7] | –
32 | 7.90 | affinity is considerably decreased | COc1cc2nc(N3CCN(C(=O)COc4ccccc4)CC3)nc(N)c2cc1OC [Compound 8] | –
33 | 9.16 | – | COc1cc2nc(N3CCN(C(=O)/C=C/c4ccccc4)CC3)nc(N)c2cc1OC [Compound 9] | irreversible blockade / effect on 3H-prazosin binding sites (in words) [2]: do not attach irreversibly to the receptor; reduction of blood pressure in spontaneously hypertensive rats [3]: capable of reducing blood pressure
34 | 7.92 | – | COc1cc2nc(N3CCN(C(=O)/C=C/c4ccc(F)cc4)CC3)nc(N)c2cc1OC [Compound 10] | –
35 | 7.68 | – | COc1cc2nc(N3CCN(C(=O)C=Cc4cccc(F)c4)CC3)nc(N)c2cc1OC [Compound 13] | –
36 | 8.47 | – | COc1ccc(/C=C/C(=O)N2CCN(c3nc(N)c4cc(OC)c(OC)cc4n3)CC2)cc1 [Compound 15] | –
37 | 8.06 | – | COc1cc2nc(N3CCN(C(=O)C(=Cc4ccccc4)N=[N+]=[N-])CC3)nc(N)c2cc1OC [Compound 21] | –
38 | 7.51 | – | COc1cc2nc(N3CCN(C(=O)C(=Cc4ccccc4)c4ccccc4)CC3)nc(N)c2cc1OC [Compound 22] | –
39 | 7.31 | decreased considerably | COc1cc2nc(N3CCN(C(=O)c4ccc5ccccc5c4)CC3)nc(N)c2cc1OC [Compound 24] | –
40 | 7.15 | very low affinity | COc1cc2nc(N3CCN(C(=O)C4C(C=C(C)C)C4(C)C)CC3)nc(N)c2cc1OC (stereo not shown) [Compound 27] | –
41 | 8.27 | decrease | COc1cc2nc(N3CCN(C(=S)NC4CCCCC4)CC3)nc(N)c2cc1OC [Compound 30] | –
42 | 8.62 | – | COc1cc2nc(N3CCN(C(=S)Nc4ccc(F)cc4)CC3)nc(N)c2cc1OC [Compound 31] | –
43 | 7.80 | – | COc1cc2nc(N3CCN(C(=S)Nc4c(F)c(F)c(F)c(F)c4F)CC3)nc(N)c2cc1OC [Compound 32] | –
44 | 7.01 | – | COc1cc2nc(N3CCN(C(=S)Nc4ccc(NC(=S)N5CC5)cc4)CC3)nc(N)c2cc1OC [Compound 36] | –
45 | 7.43 | – | COC(=O)C=Cc1ccc(NC(=S)N2CCN(c3nc(N)c4cc(OC)c(OC)cc4n3)CC2)cc1 [Compound 37] | –
46 | 7.94 | low affinity | COc1cc2nc(N3CCN(S(=O)(=O)c4ccc(C)cc4)CC3)nc(N)c2cc1OC [Compound 43] | –
47 | 7.47 | low affinity | COc1cc2nc(N3CCN(S(=O)(=O)c4cccs4)CC3)nc(N)c2cc1OC [Compound 44] | –
48 | 7.49 | failed to yield an active compound | COc1cc2nc(N3CCN(C(=O)c4cc(Cl)nc(Cl)n4)CC3)nc(N)c2cc1OC [Compound 45] | –
49 | 8.4 | – | COc1cc2nc(N3CCN(C(=O)C4=CC5CCC4CC5)CC3)nc(N)c2cc1OC [Compound 48] | overall behaviour compared with compound 47 [2]: behaves similarly to 47 in those aspects which were investigated
